We go through 2 compounds from BindingDB's records for patent US20250115590 (Foresee Pharmaceuticals USA, 2025).

The assay has as its target Macrophage metalloelastase (Homo sapiens, UniProt P39900). As to the kind of experiment: MMP Inhibitory Assays. As for the experimental part:
The inhibitory effect of compounds on the rate of cleaving fluorogenic MMP substrate (Enzo, BML-P128) by recombinant human MMP-12 catalytic domain (Enzo, BML-SE138) was carried out by methods known in the art. Briefly, to each well of a 96-well black opaque plate, all the reagents were sequentially added by pipetting, and the final reaction contained 4 nM of recombinant human MMP-12 catalytic domain, […] MMP substrate, and various concentrations (0.15 nM to 10,000 nM) of tested compound dilutions in HEPES buffer (pH 7.5) containing 10 mM of CaCl2, 0.01% Brij 35 (polyoxyethylene (23) lauryl ether), and 0.1 mg/ml of BSA. The enzyme and compounds were pre-incubated on a shaker to mix in wells. After an hour of mixing, fluorogenic substrate was added to each well. Reaction without enzyme was used as a blank control in the plate. The plate was then fed into a plate reader to measure fluorescence intensity at Excitation/Emission wavelengths of 340 nm/440 nm every 10 mins for at least 1 hour at 37° C. The IC50 of each compound in MMP-12 inhibition was determined by using a readout obtained at time point 30 minutes.

Macrophage metalloelastase, sequence (P39900 whole entry, the tested form may be a part): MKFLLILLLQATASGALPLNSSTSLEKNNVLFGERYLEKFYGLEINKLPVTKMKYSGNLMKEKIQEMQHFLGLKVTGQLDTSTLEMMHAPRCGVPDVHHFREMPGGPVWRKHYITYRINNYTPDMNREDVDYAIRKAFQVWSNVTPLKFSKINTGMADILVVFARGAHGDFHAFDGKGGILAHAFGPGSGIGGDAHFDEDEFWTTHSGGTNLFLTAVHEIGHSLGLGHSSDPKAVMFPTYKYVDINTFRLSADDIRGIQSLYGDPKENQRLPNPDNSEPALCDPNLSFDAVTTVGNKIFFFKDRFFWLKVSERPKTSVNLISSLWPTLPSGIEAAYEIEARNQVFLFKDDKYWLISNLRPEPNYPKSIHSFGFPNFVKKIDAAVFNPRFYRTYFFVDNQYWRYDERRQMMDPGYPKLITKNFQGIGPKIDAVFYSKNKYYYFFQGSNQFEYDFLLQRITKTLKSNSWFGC

Turning to `Cc1cccc(COc2ccc(Sc3ocnc3C3NC(=O)NC3=O)cc2)c1` (configuration not stated) [US20250115590, Compound OC-8], the IC50 is above 1000 nM.

The compound `O=C1NC(=O)C(c2ncoc2Sc2ccc(OCc3cccc(CO)c3)cc2)N1` (configuration not stated) [US20250115590, Compound OC-9] came in with an IC50 above 1000 nM.
